In article PMC8243516, “Inhibition of lysosomal phospholipase A2 predicts drug-induced phospholipidosis” (Journal of Lipid Research, 2021):
Counter-ions that a name gives are not always drawn.

Tests used:
[1] = target: T1, recombinant mouse LPLA2 (PLA2G15) (Mus musculus, UniProt Q8VEB4); test: Transacylase activity of LPLA2 (1-O-acyl-N-acetylsphingosine synthase, cell-free liposome assay); assay type: biochemical; settings: for IC50: 1-O-acyl N-acetylsphingosine synthase activity, pH 4.5, DOPC/sulfatide liposomes, read-out: LPLA2 IC50
T1 construct: purchased Proteos Inc. (Kalamazoo, MI)
T1 sequence (Q8VEB4 34-412): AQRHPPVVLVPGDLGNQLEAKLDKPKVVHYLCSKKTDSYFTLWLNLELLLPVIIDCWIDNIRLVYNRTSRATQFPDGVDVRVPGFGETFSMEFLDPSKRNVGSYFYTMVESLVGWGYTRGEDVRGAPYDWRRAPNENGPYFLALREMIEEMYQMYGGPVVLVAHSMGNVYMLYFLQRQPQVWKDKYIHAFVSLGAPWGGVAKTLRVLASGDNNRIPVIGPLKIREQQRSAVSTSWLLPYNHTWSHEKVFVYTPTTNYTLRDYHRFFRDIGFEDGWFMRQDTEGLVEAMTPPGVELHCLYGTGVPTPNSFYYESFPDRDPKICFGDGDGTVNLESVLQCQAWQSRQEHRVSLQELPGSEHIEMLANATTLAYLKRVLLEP

[2] = system: phospholipidosis; settings: phospholipidosis reported in vitro; Refs of Table 1; cited from earlier work
[3] = ref Pubchem and chEMBL databases; cited from earlier work
[4] = target: T2, LPLA2 (Mus musculus, UniProt Q8VEB4); test: LPLA2 thermal stability measurement (SYPRO Orange Tm); assay type: binding; settings: N=3 ± SD
T2 construct: purchased Proteos Inc. (Kalamazoo, MI)
T2 sequence (Q8VEB4 34-412): T1 sequence (Q8VEB4 34-412)

Structure (SMILES) | IC50 [1] [µM] | In Vitro PLD [2] | pKa (basic) [3] | (ΔTm)c-(ΔTm)d, difference in melting temperature of LPLA2 alone or in the presence of drug [4] [°C] | LPLA2 inhibition (in words) ([1]; acyl transferase activity)
C=CCc1ccccc1OCC(O)CNC(C)C (stereo not drawn) [Alprenolol, 1-(o-allylphenoxy)-3-(isopropylamino)-2-propanol] | 173 | Yes | 9.67 | -1.00 ± 0.1 | 
CCN(CCCc1ccccc1)CCCc1ccccc1 [Alverine, ethyl bis (3-phenylpropyl)amine] | 40 | Yes | 10.44 | 0.14 ± 0.1 | 
CCC(C)(C)c1ccc(CC(C)CN2C[C@@H](C)O[C@@H](C)C2)cc1 (stereo partly drawn) [Amorolfine, 2R,6S-2,6-dimethyl-4-(2-{[4-(2-methylbutan-2-yl)phenyl]methyl}propyl)morpholine] | 41.5 | Yes | 8.49 | -0.30 ± 0.1 | 
CC(C)NCC(O)COc1ccc(CCOCC2CC2)cc1 (stereo not drawn) [Betaxolol, 1-{4-[2-(cyclopropylmethoxy)ethyl]phenoxy}-3-[(propan-2-yl)amino]propan-2-ol] |  | Yes | 9.67 | -1.29 ± 0.9 | no inhibitory activity
CN(Cc1cc(Br)cc(Br)c1N)C1CCCCC1.Cl [Bromhexine, 2-amino-3,5-dibromo-N-cyclohexyl-N-methylbenzylamine hydrochloride] | 30.8 | Yes | 9.32 | 1.26 ± 0.2 | 
CC(C)C[C@H]1C(=O)N2CCC[C@H]2[C@]2(O)O[C@](NC(=O)[C@@H]3C=C4c5cccc6[nH]c(Br)c(c56)C[C@H]4N(C)C3)(C(C)C)C(=O)N12 [Bromocriptine, (4R,7R)-10-bromo-N-[(1S,2S,4R,7S)-2-hydroxy-7-(2-methylpropyl)-5,8-dioxo-4-(propan-2-yl)-3-oxa-6,9-diazatricyclo[7.3.0.0ˆ{2,6}]dodecan-4-yl]-6-methyl-6,11diazatetracyclo[7.6.1.0ˆ{2,7}.0ˆ{12,16}]hexadeca-1(16),2,9,12,14-pentaene-4-carboxamide] | 125 | Yes | 6.71 |  | 
CN(C)CCC(c1ccc(Cl)cc1)c1ccccn1 (stereo not drawn) [Chlorpheniramine, [3-(4-chlorophenyl)-3-(pyridin-2-yl)propyl] dimethylamine] | 147 | Yes | 9.47 | 0.34 ± 0.0 | 
CN(C)CC/C=C1/c2ccccc2Sc2ccc(Cl)cc21 [Chlorprothixene] | 7.78 | Yes | 9.76 | -2.0 ± 0.1 | 
Clc1ccc(C(OCCN2CCCCC2)c2ccccc2)cc1 (stereo not drawn) [Cloperastin, 1-{2-[(4-chlorophenyl) (phenyl)methoxy]ethyl} piperidine] | 40.9 | Yes | 8.82 | 0 | 
C[C@]12C[C@H](O)[C@H]3[C@@H](CCC4=CC(=O)CC[C@@]43C)[C@@H]1CC[C@@H]2C(=O)CO [Corticosterone, (1S,2R,10S,11S,14S,15S,17S)-17-hydroxy-14-(2-hydroxyacetyl)-2,15-dimethyltetracyclo[8.7.0.0^2,^7.0^11,^15]heptadec-6-en-5-one] | 163 | Yes | -0.26 | 0 | 
COc1cc2nc(N3CCN(C(=O)c4ccco4)C4CCCCC43)nc(N)c2cc1OC (stereo not drawn) [Cyclazosin, 1-(4-amino-6,7-dimethoxy-2-quinazolinyl)-4-(2-furanylcarbonyl) decahydroquinoxaline] | 30.8 | Yes | 9.89 | 0.18 ± 0.1 | 
CN(C)CCOC(=O)C(c1ccccc1)C1(O)CCCC1 (stereo not drawn) [Cyclopentolate, 2-(dimethylamino)ethyl 2-(1-hydroxycyclopentyl)-2-phenylacetate] | 32.2 | Yes | 8.42 | 0.87 ± 0.6 | 
c1ccc2c(c1)CCc1ccccc1C2 [Dibenzosuberane, 10,11-dihydro-5H-dibenzo [a, d] cycloheptene-833-48-7] | 346 | Yes | 10 | -1.94 ± 0.0 | 
CCN(CC)CCOC(=O)C(c1ccccc1)C1CCCCC1 (stereo not drawn) [Drofenine, hexahydroadiphenine] | 7.29 | Yes | 9.21 | 1.50 ± 0.1 | 
C[C@]12C=CC(=O)N[C@@H]1CC[C@@H]1[C@@H]2CC[C@]2(C)[C@@H](C(=O)Nc3cc(C(F)(F)F)ccc3C(F)(F)F)CC[C@@H]12 [Dutasteride, (1S,2R,7R,10S,11S,14S,15S)-N-[2,5-bis (trifluoromethyl)phenyl]-2,15-dimethyl-5-oxo-6-azatetracyclo[8.7.0.0^2,^7.0^11,^15]heptadec-3-ene-14-carboxamide] | 1050 | Yes | 2.17 |  | 
CCOC(=O)c1cncn1[C@H](C)c1ccccc1 [Etomidate, ethyl 1-[(1R)-1-phenylethyl]-1H-imidazole-5-carboxylate] | 1150 | Yes | 4.54 | -0.76 ± 0.3 | 
O=C(COc1ccc(Cl)cc1)N1CCN(Cc2ccc3c(c2)OCO3)CC1 [Fipexide, 1-(2-[4-chlorophenoxy]acetyl)-4-(3,4-methylenedioxybenzyl)piperazine] | 17.2 | Yes | 6.09 | -0.17 ± 0.0 | 
O=C(O)c1ccccc1Nc1cccc(C(F)(F)F)c1 [Flufenamic acid, 2-{[3-(trifluoromethyl)phenyl]amino}benzoic acid] | 178 | Yes | -2.1 | -0.62 ± 0.3 | 
CC(=O)N1CCN(c2ccc(OCC3COC(Cn4ccnc4)(c4ccc(Cl)cc4Cl)O3)cc2)CC1 (stereo not drawn) [Ketoconazole, 1-[4-(4-{[2-(2,4-dichlorophenyl)-2-(1H-imidazole-1-ylmethyl)-1,3-dioxolan-4-yl]methoxy}phenyl)piperazin-1-yl]ethan-1-one] | 39 | Yes | 6.75 | 0.42 ± 0.8 | 
COC(=O)C1=C(C)NC(C)=C(C(=O)OC(C)(C)CN(C)CCC(c2ccccc2)c2ccccc2)C1c1cccc([N+](=O)[O-])c1 (stereo not drawn) [Lercanidipine, 3-{1-[(3,3-diphenylpropyl)(methyl)amino]-2-methylpropan-2-yl} 5-methyl 2,6-dimethyl-4-(3-nitrophenyl)-1,4-dihydropyridine-3,5-dicarboxylate] | 37.2 | Yes | 9.36 | 0.21 ± 0.3 | 
CCN(CC)CCc1nc(-c2ccccc2)no1 [Oxolamine citrate, diethyl[2-(3-phenyl-1,2,4-oxadiazol-5-yl)ethyl]amine] | 369 | Yes | 8.96 |  | 
O=C(Nc1cccc2c(=O)cc(-c3nnn[nH]3)oc12)c1ccc(OCCCCc2ccccc2)cc1 [Pranlukast, N-[4-oxo-2-(2H-1,2,3,4-tetrazol-5-yl)-4H-chromen-8-yl]-4-(4-phenylbutoxy)benzamide] |  | Yes | -1.7 | 0 | 
